Legend:
[1] = target: T1, PPARγ (Mus musculus, UniProt P37238); experiment: T cell numbers in lal−/− mice (data not shown)
T1 construct: host or cells: lal-/- mice (lung)
T1 sequence (P37238 1-505): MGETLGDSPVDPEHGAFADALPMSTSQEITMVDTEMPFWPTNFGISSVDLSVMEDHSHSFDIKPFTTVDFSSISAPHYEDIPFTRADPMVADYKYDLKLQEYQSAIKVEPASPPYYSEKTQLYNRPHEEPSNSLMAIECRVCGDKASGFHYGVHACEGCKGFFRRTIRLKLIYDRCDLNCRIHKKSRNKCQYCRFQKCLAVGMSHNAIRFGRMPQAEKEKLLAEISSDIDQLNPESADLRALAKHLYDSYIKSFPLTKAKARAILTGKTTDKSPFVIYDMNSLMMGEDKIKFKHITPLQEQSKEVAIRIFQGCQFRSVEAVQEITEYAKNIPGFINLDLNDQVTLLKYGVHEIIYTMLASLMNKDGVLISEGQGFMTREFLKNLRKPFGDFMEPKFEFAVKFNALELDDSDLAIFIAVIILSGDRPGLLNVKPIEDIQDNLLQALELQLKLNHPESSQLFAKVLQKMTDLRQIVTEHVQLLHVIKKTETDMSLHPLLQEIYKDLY

[2] = test system: Ly6G+CD11b+ cells; experiment: ROS level in Ly6G+CD11b+ cells by flow cytometry; assay type: cell-based, mouse; settings: lal−/− Ly6G+CD11b+ cells; 20 μmol/L, 48 hours
Procedure: The reactive oxygen species (ROS) level and mitochondrial membrane potential in MDSCs was measured by flow cytometry. Briefly, bone marrow cells were first treated with or without 20 μmol/L 9-HODE or ethanol for 2 days. For ROS level detection, cells were harvested, washed, and stained with 2′,7′-dichlorofluorescein diacetate (2 μmol/L, Invitrogen), allophycocyanin cy7-conjugated anti-Ly6G Ab, and phycoerythrin cy7-conjugated anti-CD 11b Ab (eBioscience) at 37° C. for 15 minutes. After PBS wash, the ROS level in Ly6G^+CD11b^+ cells was analyzed using a LSRII machine (BD Biosciences).

[3] = Histology and morphometry of organs in CCSP-Tg/KO mice (lung epithelial hLAL expression); assay type: in vivo, mouse
Excerpt: Wild-type (lal^+/+) and lal^−/− mice of the FVB/N background were bred in house. CCSP-rtTA/(TetO)7-CMV-hLAL; lal^−/− (CCSP-Tg/KO) triple mice were generated by crossbreeding previously made CCSP-rtTA transgenic mice and (TetO)7-CMV-hLAL transgenic mice into lal^−/− mice. This triple transgenic mouse model is lung AT II epithelial cells-specific Tet-on expression of wild-type human LAL (hLAL) in lal^−/− mice under the control of the CCSP promoter. All scientific protocols involving the use of animals were approved by the Institutional Animal Care and Use Committee of Indiana University School of Medicine and followed guidelines established by the Panel on Euthanasia of the American Veterinary Medical Association. Animals were housed under Institutional Animal Care and Use Committee-approved conditions in a secured animal facility at Indiana University School of Medicine.
The lungs were harvested and fixed with 4% paraformaldehyde in PBS at 4° C. overnight. After embedding in paraffin, tissue sections were cut to 5 μm thick. Hematoxylin and eosin (H&E) staining was performed by the Histological Core Facility, Department of Pathology and Laboratory Medicine, Indiana University. […] Images were analyzed by Nikon NIS Elements imaging software. […] The alveoli were assessed by area, diameter and perimeter using the integrated morphometry analysis tool. […]

Molecule | decreased T cell numbers in lal−/− mice [1] | ROS production [2] | liver and spleen pathology ([3]; doxycycline-treated vs untreated CCSP-Tg/KO mice) | lung damage (emphysema, alveolar area, diameter, perimeter) ([3]; lung epithelial expression, doxycycline-treated CCSP-Tg/KO mice)
9-hydroxyoctadecadienoic acid [9-HODE] | reversed | suppressed the increased ROS production |  | 
hLAL: human lysosomal acid lipase expressed from a doxycycline-controlled tissue-specific transgene in lal−/− mice; never administered as a protein (protein, left off: small tags and cut ends, human lysosomal acid lipase expressed from a doxycycline-controlled tissue-specific transgene in lal−/− mice; never administered as a protein) GPKPVVFLQHGLLADSSNWVTNLANSSLGFILADAGFDVWMGNSRGNTWSRKHKTLSVSQDEFWAFSYDEMAKYDLPASINFILNKTGQEQVYYVGHSQGTTIGFIAFSQIPELAKRIKMFFALGPVASVAFCTSPMAKLGRLPDHLIKDLFGDKEFLPQSAFLKWLGTHVCTHVILKELCGNLCFLLCGFNERNLNMSRVDVYTTHSPAGTSVQNMLHWSQAVKFQKFQAFDWGSSAKNYFHYNQSYPPTYNVKDMLVPTAVWSGGHDWLADVYDVNILLTQITNLVFHESIPEWEHLDFIWGLDAPWRLYNKIINLMRKYQ |  |  | no improvement in the liver and spleen | partially restored

Reference: US10857209B2, “Lysosomal acid lipase and PPAR gamma ligands as immune therapies for cancer treatment” (Indiana University Research and Technology Corporation, priority 2016, dated 2020)
